Molecular target: F508delCFTR (Homo sapiens, UniProt P13569, DEL508-508)
Experiment: Cell Surface Expression-Horse Radish Peroxidase (CSE-HRP) assay
Assay type: cell-based
Design: expressed in transfected cells; host or cells: CFBE41o- human lung derived epithelial cell line, doxycycline-inducible
Conditions: CFBE4lo-F508delCFTR-HRP cells; for EC50: 18-24 hours at 33° C., 8-point curve, highest concentration 20 μM, luminescence readout; for Emax: maximum % activity at any tested concentration, normalized to on-plate positive control (3 μM Example 1)
In short: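 Following 18-24 h compound exposure at 33° C. Expression was doxycycline-induced beforehand. % activity versus DMSO and a 3 μM corrector control gave maximum activity and EC50 from a variable-Hill sigmoidal fit.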

Sequence of F508delCFTR (P13569 with tags, fused parts or gaps DEL508-508): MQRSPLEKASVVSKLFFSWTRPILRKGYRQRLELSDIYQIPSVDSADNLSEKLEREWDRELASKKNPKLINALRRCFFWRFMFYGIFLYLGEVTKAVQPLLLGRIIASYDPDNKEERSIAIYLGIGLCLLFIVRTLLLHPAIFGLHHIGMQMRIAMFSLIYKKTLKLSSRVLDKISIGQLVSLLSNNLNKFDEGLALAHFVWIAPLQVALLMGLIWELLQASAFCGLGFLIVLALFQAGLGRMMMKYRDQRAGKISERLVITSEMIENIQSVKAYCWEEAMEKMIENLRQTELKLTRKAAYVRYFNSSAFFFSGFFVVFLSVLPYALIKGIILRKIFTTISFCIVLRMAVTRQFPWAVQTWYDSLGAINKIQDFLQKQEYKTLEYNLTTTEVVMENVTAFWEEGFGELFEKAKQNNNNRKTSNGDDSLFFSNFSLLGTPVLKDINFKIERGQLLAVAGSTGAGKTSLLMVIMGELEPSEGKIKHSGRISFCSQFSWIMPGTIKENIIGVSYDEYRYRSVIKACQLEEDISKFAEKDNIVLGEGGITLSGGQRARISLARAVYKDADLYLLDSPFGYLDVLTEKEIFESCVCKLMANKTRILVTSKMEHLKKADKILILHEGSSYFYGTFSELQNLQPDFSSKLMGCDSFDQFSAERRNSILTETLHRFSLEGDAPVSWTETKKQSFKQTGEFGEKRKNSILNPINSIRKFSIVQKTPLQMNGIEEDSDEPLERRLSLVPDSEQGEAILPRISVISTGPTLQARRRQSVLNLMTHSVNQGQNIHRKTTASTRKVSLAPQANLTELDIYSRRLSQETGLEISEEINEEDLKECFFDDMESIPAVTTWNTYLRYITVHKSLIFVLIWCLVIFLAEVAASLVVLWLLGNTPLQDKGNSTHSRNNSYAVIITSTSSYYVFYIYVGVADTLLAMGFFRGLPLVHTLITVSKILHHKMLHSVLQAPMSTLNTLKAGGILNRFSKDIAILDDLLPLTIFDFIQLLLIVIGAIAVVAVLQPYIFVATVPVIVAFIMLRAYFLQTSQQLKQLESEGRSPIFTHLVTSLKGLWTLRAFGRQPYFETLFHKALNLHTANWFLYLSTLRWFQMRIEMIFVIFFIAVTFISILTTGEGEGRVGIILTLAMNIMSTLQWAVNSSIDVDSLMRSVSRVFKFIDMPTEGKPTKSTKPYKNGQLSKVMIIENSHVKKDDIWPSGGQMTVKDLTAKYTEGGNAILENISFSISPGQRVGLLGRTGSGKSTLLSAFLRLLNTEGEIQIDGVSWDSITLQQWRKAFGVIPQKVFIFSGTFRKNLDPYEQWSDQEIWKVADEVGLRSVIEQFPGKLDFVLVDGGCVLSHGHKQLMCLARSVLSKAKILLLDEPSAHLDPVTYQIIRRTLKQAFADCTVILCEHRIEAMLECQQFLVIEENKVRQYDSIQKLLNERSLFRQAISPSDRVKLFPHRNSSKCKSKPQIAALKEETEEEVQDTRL

Compound	EC50 [nM]	Emax [%]
COc1ccc2c(c1)OC(c1ccc(Cl)cc1)CC2NC(=O)C1(c2ccc3c(c2)OC(F)(F)O3)CC1 (stereo not drawn) [Example 63, N-[2-(4-chlorophenyl)-7-methoxy-3,4-dihydro-2H-chromen-4-yl]-1-(2,2-difluoro-1,3-benzodioxol-5-yl)cyclopropanecarboxamide]	630	106
O=C(NC1CC(c2ccccc2Cl)Oc2ccccc21)C1(c2ccc3c(c2)OC(F)(F)O3)CC1 (stereo not drawn) [Example 65, N-[2-(2-chlorophenyl)-3,4-dihydro-2H-chromen-4-yl]-1-(2,2-difluoro-1,3-benzodioxol-5-yl)cyclopropanecarboxamide]	10100	45
O=C(NC1CC(c2ccc(F)cc2)Oc2ccccc21)C1(c2ccc3c(c2)OC(F)(F)O3)CC1 (stereo not drawn) [Example 71, 1-(2,2-difluoro-1,3-benzodioxol-5-yl)-N-[2-(4-fluorophenyl)-3,4-dihydro-2H-chromen-4-yl]cyclopropanecarboxamide]	2840	91
COc1ccc2c(c1)C(NC(=O)C1(c3ccc4c(c3)OC(F)(F)O4)CC1)C(Cc1ccc(OC)c(OC)c1)CO2 (stereo not drawn) [Example 72, 1-(2,2-difluoro-1,3-benzodioxol-5-yl)-N-[3-(3,4-dimethoxybenzyl)-6-methoxy-3,4-dihydro-2H-chromen-4-yl]cyclopropanecarboxamide]	2500	71
O=C(NC1c2ccccc2OCC1Cc1ccccc1)C1(c2ccc3c(c2)OC(F)(F)O3)CC1 (stereo not drawn) [Example 73, N-(3-benzyl-3,4-dihydro-2H-chromen-4-yl)-1-(2,2-difluoro-1,3-benzodioxol-5-yl)cyclopropanecarboxamide]	7630	57
CCC1(CC)C[C@@H](NC(=O)C2(c3ccc4c(c3)OC(F)(F)O4)CC2)c2ccccc2O1 [Example 74, N-[(4R)-2,2-diethyl-3,4-dihydro-2H-chromen-4-yl]-1-(2,2-difluoro-1,3-benzodioxol-5-yl)cyclopropanecarboxamide]	5530	98
O=C(N[C@@H]1CC2(CCCC2)Oc2ccccc21)C1(c2ccc3c(c2)OC(F)(F)O3)CC1 [Example 78, 1-(2,2-difluoro-1,3-benzodioxol-5-yl)-N-[(4R)-3,4-dihydrospiro[chromene-2,1′-cyclopentan]-4-yl]cyclopropanecarboxamide]	5280	95
O=C(N[C@@H]1CC(CF)(CF)Oc2cc(F)ccc21)C1(c2ccc3c(c2)OC(F)(F)O3)CC1 [Example 79, 1-(2,2-difluoro-1,3-benzodioxol-5-yl)-N-[(4R)-7-fluoro-2,2-bis(fluoromethyl)-3,4-dihydro-2H-chromen-4-yl]cyclopropanecarboxamide]	7250	117
C[C@@]1(CF)C[C@@H](NC(=O)C2(c3ccc4c(c3)OC(F)(F)O4)CC2)c2ccc(C(F)(F)F)cc2O1 [Example 80, 1-(2,2-difluoro-1,3-benzodioxol-5-yl)-N-[(2S,4R)-2-(fluoromethyl)-2-methyl-7-(trifluoromethyl)-3,4-dihydro-2H-chromen-4-yl]cyclopropanecarboxamide]	1550	114
C[C@]1(C(F)F)C[C@@H](NC(=O)C2(c3ccc4c(c3)OC(F)(F)O4)CC2)c2ccccc2O1 [Example 81, 1-(2,2-difluoro-1,3-benzodioxol-5-yl)-N-[(2R,4R)-2-(difluoromethyl)-2-methyl-3,4-dihydro-2H-chromen-4-yl]cyclopropanecarboxamide]	4500	98
C[C@@]1(C(F)F)C[C@@H](NC(=O)C2(c3ccc4c(c3)OC(F)(F)O4)CC2)c2ccc(Cl)cc2O1 [Example 83, N-[(2S,4R)-7-chloro-2-(difluoromethyl)-2-methyl-3,4-dihydro-2H-chromen-4-yl]-1-(2,2-difluoro-1,3-benzodioxol-5-yl)cyclopropanecarboxamide]	2720	106
CC1(C)C[C@@H](NC(=O)C2(c3ccc4c(c3)OC(F)(F)O4)CC2)c2ccc(F)cc2O1 [Example 86, 1-(2,2-difluoro-1,3-benzodioxol-5-yl)-N-[(4R)-7-fluoro-2,2-dimethyl-3,4-dihydro-2H-chromen-4-yl]cyclopropanecarboxamide]	3500	101
CC1(C)C[C@@H](NC(=O)C2(c3ccc4c(c3)OC(F)(F)O4)CC2)c2ccc(F)c(Cl)c2O1 [Example 90, N-[(4R)-8-chloro-7-fluoro-2,2-dimethyl-3,4-dihydro-2H-chromen-4-yl]-1-(2,2-difluoro-1,3-benzodioxol-5-yl)cyclopropanecarboxamide]	3440	42
COc1ccc2c(c1)OCC(Cc1ccc(OC)c(OC)c1)C2NC(=O)C1(c2ccc3c(c2)OC(F)(F)O3)CC1 (stereo not drawn) [Example 91, 1-(2,2-difluoro-1,3-benzodioxol-5-yl)-N-[3-(3,4-dimethoxybenzyl)-7-methoxy-3,4-dihydro-2H-chromen-4-yl]cyclopropanecarboxamide]	2710	82
O=C(NC1CC2(CCNCC2)Oc2cc(F)ccc21)C1(c2ccc3c(c2)OC(F)(F)O3)CC1 (stereo not drawn) [Example 93, 1-(2,2-difluoro-1,3-benzodioxol-5-yl)-N-(7-fluoro-3,4-dihydrospiro[chromene-2,4′-piperidin]-4-yl)cyclopropanecarboxamide]	2800	26

Continued, values first:

EC50 [nM]	Emax [%]	Compound
1610	78	O=C(NC1CC(c2ccc(C(F)(F)F)cc2)Oc2ccccc21)C1(c2ccc3c(c2)OC(F)(F)O3)CC1 (stereo not drawn) [Example 64, 1-(2,2-difluoro-1,3-benzodioxol-5-yl)-N-{2-[4-(trifluoromethyl)phenyl]-3,4-dihydro-2H-chromen-4-yl}cyclopropanecarboxamide]
5890	128	O=C(NC1CC(c2ccccc2)Oc2ccccc21)C1(c2ccc3c(c2)OC(F)(F)O3)CC1 (stereo not drawn) [Example 67, 1-(2,2-difluoro-1,3-benzodioxol-5-yl)-N-(2-phenyl-3,4-dihydro-2H-chromen-4-yl)cyclopropanecarboxamide]
870	89	O=C(NC1CC(c2ccc(Cl)cc2)Oc2ccccc21)C1(c2ccc3c(c2)OC(F)(F)O3)CC1 (stereo not drawn) [Example 68, N-[2-(4-chlorophenyl)-3,4-dihydro-2H-chromen-4-yl]-1-(2,2-difluoro-1,3-benzodioxol-5-yl)cyclopropanecarboxamide]
2120	109	COc1ccc(C2CC(NC(=O)C3(c4ccc5c(c4)OC(F)(F)O5)CC3)c3ccccc3O2)cc1OC (stereo not drawn) [Example 69, 1-(2,2-difluoro-1,3-benzodioxol-5-yl)-N-[2-(3,4-dimethoxyphenyl)-3,4-dihydro-2H-chromen-4-yl]cyclopropanecarboxamide]
6840	94	O=C(NC1CC(c2cccc(Cl)c2)Oc2ccccc21)C1(c2ccc3c(c2)OC(F)(F)O3)CC1 (stereo not drawn) [Example 70, N-[2-(3-chlorophenyl)-3,4-dihydro-2H-chromen-4-yl]-1-(2,2-difluoro-1,3-benzodioxol-5-yl)cyclopropanecarboxamide]
3280	75	O=C(N[C@@H]1CC(CF)(CF)Oc2ccccc21)C1(c2ccc3c(c2)OC(F)(F)O3)CC1 [Example 75, N-[(4R)-2,2-bis(fluoromethyl)-3,4-dihydro-2H-chromen-4-yl]-1-(2,2-difluoro-1,3-benzodioxol-5-yl)cyclopropanecarboxamide]
2990	105	CC1(C)C[C@@H](NC(=O)C2(c3ccc4c(c3)OC(F)(F)O4)CC2)c2ccc(Cl)cc2O1 [Example 76, N-[(4R)-7-chloro-2,2-dimethyl-3,4-dihydro-2H-chromen-4-yl]-1-(2,2-difluoro-1,3-benzodioxol-5-yl)cyclopropanecarboxamide]
2720	97	C[C@@]1(C(F)F)C[C@@H](NC(=O)C2(c3ccc4c(c3)OC(F)(F)O4)CC2)c2ccccc2O1 [Example 82, 1-(2,2-difluoro-1,3-benzodioxol-5-yl)-N-[(2S,4R)-2-(difluoromethyl)-2-methyl-3,4-dihydro-2H-chromen-4-yl]cyclopropanecarboxamide]
2240	91	C[C@]1(C(F)F)C[C@@H](NC(=O)C2(c3ccc4c(c3)OC(F)(F)O4)CC2)c2ccc(Cl)cc2O1 [Example 84, N-[(2R,4R)-7-chloro-2-(difluoromethyl)-2-methyl-3,4-dihydro-2H-chromen-4-yl]-1-(2,2-difluoro-1,3-benzodioxol-5-yl)cyclopropanecarboxamide]
6810	108	C[C@@]1(C(F)(F)F)C[C@@H](NC(=O)C2(c3ccc4c(c3)OC(F)(F)O4)CC2)c2ccccc2O1 [Example 85, 1-(2,2-difluoro-1,3-benzodioxol-5-yl)-N-[(2S,4R)-2-methyl-2-(trifluoromethyl)-3,4-dihydro-2H-chromen-4-yl]cyclopropanecarboxamide]
4630	146	O=C(N[C@@H]1CC(CF)(CF)Oc2cc(Cl)ccc21)C1(c2ccc3c(c2)OC(F)(F)O3)CC1 [Example 87, N-[(4R)-7-chloro-2,2-bis(fluoromethyl)-3,4-dihydro-2H-chromen-4-yl]-1-(2,2-difluoro-1,3-benzodioxol-5-yl)cyclopropanecarboxamide]
2570	71	CC(C)(C)OC(=O)N1CCC2(CC1)CC(NC(=O)C1(c3ccc4c(c3)OC(F)(F)O4)CC1)c1ccc(F)cc1O2 (stereo not drawn) [Example 92, tert-butyl 4-({[1-(2,2-difluoro-1,3-benzodioxol-5-yl)cyclopropyl]carbonyl}amino)-7-fluoro-3,4-dihydro-1′H-spiro[chromene-2,4′-piperidine]-1′-carboxylate]
